ChEMBL document CHEMBL1201862, “PubChem BioAssay data set” (2004)
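The compound was tested at five concentrations on cells cultured in 96-well plates, with a 48-hour exposure period. Here, GI50 denotes the concentration required for 50% inhibition of growth.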 The source made the active and inactive calls. No stated cut-off is given here; in the data, active = GI50 up to about 1.1 µM and inactive = higher.

Legend:
Assay in all cases: inhibition of tumour cell growth, NCI panel, 48 h
786-0 = system: 786-0
A498 = system: A498
A549 = system: A549
ACHN = system: ACHN
BT-549 = system: BT-549
CCRF-CEM = system: CCRF-CEM
COLO 205 = system: COLO 205
DU-145 = system: DU-145
EKVX = system: EKVX
HCT-116 = system: HCT-116
HCT-15 = system: HCT-15
HL-60 = system: HL-60
HOP-62 = system: HOP-62
HOP-92 = system: HOP-92
HT-29 = system: HT-29
Hs-578T = system: Hs-578T
IGROV-1 = system: IGROV-1
K562 = system: K562
LOX IMVI = system: LOX IMVI
M14 = system: M14
MCF7 = system: MCF7
MDA-MB-231 = system: MDA-MB-231
MDA-N = system: MDA-N
MOLT-4 = system: MOLT-4
Malme-3M = system: Malme-3M
NCI-H226 = system: NCI-H226
NCI-H23 = system: NCI-H23
NCI-H460 = system: NCI-H460
NCI-H522 = system: NCI-H522
NCI/ADR-RES = system: NCI/ADR-RES
OVCAR-3 = system: OVCAR-3
OVCAR-5 = system: OVCAR-5
OVCAR-8 = system: OVCAR-8
PC-3 = system: PC-3
RPMI-8226 = system: RPMI-8226
RXF 393 = system: RXF 393
SF-268 = system: SF-268
SF-295 = system: SF-295
SF-539 = system: SF-539
SK-MEL-28 = system: SK-MEL-28
SK-MEL-2 = system: SK-MEL-2
SK-MEL-5 = system: SK-MEL-5
SK-OV-3 = system: SK-OV-3
SN12C = system: SN12C
SNB-19 = system: SNB-19
SNB-75 = system: SNB-75
SR = system: SR
SW-620 = system: SW-620
T47D = system: T47D
TK-10 = system: TK-10
U-251 = system: U-251
UACC-257 = system: UACC-257
UACC-62 = system: UACC-62
UO-31 = system: UO-31
CAKI-1 = system: CAKI-1
HCC 2998 = system: HCC 2998
KM12 = system: KM12
MDA-MB-435 = system: MDA-MB-435
OVCAR-4 = system: OVCAR-4

For O=C(O)C(/C=C/c1ccccc1)c1ccccc1 (centres undefined), the GI50 (786-0) was > 100 µM (inactive), the GI50 (A498) was > 100 µM (inactive) and the GI50 (A549) was > 100 µM (inactive). For the same molecule, the GI50 (ACHN) was > 100 µM (inactive), the GI50 (BT-549) was > 100 µM (inactive) and the GI50 (CCRF-CEM) was 14.3 µM (inactive). For the same molecule, the GI50 (COLO 205) was > 100 µM (inactive), the GI50 (DU-145) was > 100 µM (inactive) and the GI50 (EKVX) was > 100 µM (inactive). The GI50 (HCT-116) was > 100 µM (inactive), the GI50 (HCT-15) was > 100 µM and the GI50 (HL-60) was 9.25 µM (inactive). For the same molecule, the GI50 (HOP-62) was > 100 µM (inactive), the GI50 (HOP-92) was > 100 µM (inactive) and the GI50 (HT-29) was > 100 µM (inactive). For the same molecule, the GI50 (Hs-578T) was > 100 µM (inactive), the GI50 (IGROV-1) was > 100 µM (inactive) and the GI50 (K562) was 84.3 µM (inactive). For the same molecule, the GI50 (LOX IMVI) was > 100 µM (inactive), the GI50 (M14) was > 100 µM (inactive) and the GI50 (MCF7) was > 100 µM (inactive). The GI50 (MDA-MB-231) was > 100 µM (inactive), the GI50 (MDA-N) was > 100 µM (inactive) and the GI50 (MOLT-4) was 6.59 µM (inactive). The GI50 (Malme-3M) was > 100 µM (inactive), the GI50 (NCI-H226) was > 100 µM (inactive) and the GI50 (NCI-H23) was > 100 µM (inactive). For the same molecule, the GI50 (NCI-H460) was > 100 µM (inactive), the GI50 (NCI-H522) was 69.7 µM (inactive) and the GI50 (NCI/ADR-RES) was > 100 µM (inactive). The GI50 (OVCAR-3) was > 100 µM (inactive), the GI50 (OVCAR-5) was > 100 µM (inactive) and the GI50 (OVCAR-8) was > 100 µM (inactive). For the same molecule, the GI50 (PC-3) was > 100 µM (inactive), the GI50 (RPMI-8226) was > 100 µM (inactive) and the GI50 (RXF 393) was > 100 µM (inactive). For the same molecule, the GI50 (SF-268) was > 100 µM (inactive), the GI50 (SF-295) was > 100 µM (inactive) and the GI50 (SF-539) was > 100 µM (inactive). The GI50 (SK-MEL-28) was > 100 µM (inactive), the GI50 (SK-MEL-2) was > 100 µM (inactive) and the GI50 (SK-MEL-5) was > 100 µM (inactive). The GI50 (SK-OV-3) was > 100 µM (inactive), the GI50 (SN12C) was > 100 µM (inactive) and the GI50 (SNB-19) was > 100 µM (inactive). For the same molecule, the GI50 (SNB-75) was > 100 µM (inactive), the GI50 (SR) was 5.11 µM (inactive) and the GI50 (SW-620) was > 100 µM (inactive). The GI50 (T47D) was > 100 µM (inactive), the GI50 (TK-10) was > 100 µM (inactive) and the GI50 (U-251) was > 100 µM (inactive). The GI50 (UACC-257) was > 100 µM (inactive), the GI50 (UACC-62) was > 100 µM (inactive) and the GI50 (UO-31) was > 100 µM (inactive).

In the case of CC(C)(C)c1ccc(-c2nnc(-c3cc(C#N)cc(-c4nnc(-c5ccc(C(C)(C)C)cc5)o4)c3)o2)cc1, the GI50 (786-0) is reported as 50.2 µM (inactive), the GI50 (A498) is reported as > 100 µM (inactive) and the GI50 (A549) is reported as > 100 µM (inactive). For the same molecule, the GI50 (ACHN) was > 100 µM (inactive), the GI50 (BT-549) was > 100 µM (inactive) and the GI50 (CAKI-1) was > 100 µM (inactive). For the same molecule, the GI50 (CCRF-CEM) was > 100 µM (inactive), the GI50 (COLO 205) was > 100 µM (inactive) and the GI50 (DU-145) was > 100 µM (inactive). The GI50 (EKVX) was > 100 µM (inactive), the GI50 (HCC 2998) was > 100 µM (inactive) and the GI50 (HCT-116) was > 100 µM (inactive). The GI50 (HCT-15) was > 100 µM, the GI50 (HOP-62) was 60.1 µM (inactive) and the GI50 (HOP-92) was > 100 µM (inactive). For the same molecule, the GI50 (HT-29) was > 100 µM (inactive), the GI50 (Hs-578T) was 33 µM (inactive) and the GI50 (IGROV-1) was > 100 µM (inactive). For the same molecule, the GI50 (K562) was > 100 µM (inactive), the GI50 (KM12) was > 100 µM (inactive) and the GI50 (LOX IMVI) was > 100 µM (inactive). For the same molecule, the GI50 (M14) was > 100 µM (inactive), the GI50 (MDA-MB-231) was > 100 µM (inactive) and the GI50 (MDA-MB-435) was > 100 µM (inactive). For the same molecule, the GI50 (MDA-N) was > 100 µM (inactive), the GI50 (MOLT-4) was > 100 µM (inactive) and the GI50 (Malme-3M) was > 100 µM (inactive). The GI50 (NCI-H226) was > 100 µM (inactive), the GI50 (NCI-H23) was > 100 µM (inactive) and the GI50 (NCI-H460) was > 100 µM (inactive). For the same molecule, the GI50 (NCI-H522) was > 100 µM (inactive), the GI50 (NCI/ADR-RES) was > 100 µM (inactive) and the GI50 (OVCAR-3) was > 100 µM (inactive). For the same molecule, the GI50 (OVCAR-4) was > 100 µM (inactive), the GI50 (OVCAR-5) was > 100 µM (inactive) and the GI50 (OVCAR-8) was > 100 µM (inactive). The GI50 (PC-3) was > 100 µM (inactive), the GI50 (RPMI-8226) was > 100 µM (inactive) and the GI50 (RXF 393) was 0.0107 µM (active). For the same molecule, the GI50 (SF-268) was > 100 µM (inactive), the GI50 (SF-295) was > 100 µM (inactive) and the GI50 (SK-MEL-28) was > 100 µM (inactive). For the same molecule, the GI50 (SK-MEL-2) was > 100 µM (inactive), the GI50 (SK-MEL-5) was > 100 µM (inactive) and the GI50 (SK-OV-3) was > 100 µM (inactive). For the same molecule, the GI50 (SN12C) was > 100 µM (inactive), the GI50 (SNB-19) was > 100 µM (inactive) and the GI50 (SNB-75) was 88.9 µM (inactive). The GI50 (SW-620) was > 100 µM (inactive), the GI50 (T47D) was > 100 µM (inactive) and the GI50 (TK-10) was > 100 µM (inactive). For the same molecule, the GI50 (U-251) was > 100 µM (inactive), the GI50 (UACC-257) was > 100 µM (inactive) and the GI50 (UACC-62) was > 100 µM (inactive). For the same molecule, the GI50 (UO-31) was > 100 µM (inactive).
